In brackets after ≈: the same amount, converted by molar mass. Several values for one entry are separate records, joined by “and”; a condition that tells them apart may be missing. Identical values can stand only once. Like-named read-outs stand apart in the source and are kept apart here.
Assays:
[1] = system: late-stage gametocytes of Plasmodium falciparum (NF54 strain); experiment: pLDH assay, late-stage gametocyte viability; assay type: cell-based; details: 72 + 72 h pLDH assay; for IC50: Plasmodium falciparum, NF54, 72 h
Description: (§1) The chloroquine-sensitive P. falciparum (NF54 strain) was cultured as described by […] et al. […] Gametocytogenesis initiation, induction and gametocyte culturing was done as described by Reader et al.. […] Both methylene blue (MB) and artemisinin (ART) was used as gametocytocidal drug controls and chloroquine for asexual drug control. Assay data were normalized against untreated Plasmodium parasites and HepG2 cell controls. […] Data were analysed on Microsoft Excel and sigmoidal dose-response curves were plotted using GraphPad Prism (v5). […] Statistical analysis was carried out on GraphPad Prism (v5) using unpaired Student-t test with a level of significance of P < 0.05.

[2] = system: early-stage gametocytes (> 85% stage II–III) of P. falciparum (NF54 strain); experiment: pLDH assay, early-stage gametocyte viability; assay type: cell-based, Plasmodium falciparum; details: n = 3; for IC50 value, Early stage gametocytes: 1–2% gametocytaemia; for IC50: Plasmodium falciparum, NF54, 1–2% gametocytaemia
Description: as §1

HepG2 cells = experiment: LDH leakage cytotoxicity assay; assay type: cell-based; details: for cytotoxicity (toxicity): HepG2, at 20 µg/ml; for In vitro cytotoxicity range: HepG2, concentrations of 2.5, 5, 10, and 20 µg/ml
Description: (§2) Cytotoxicity assays were assessed on the HepG2 cell line (20,000 cells/well) as previously described. […] was as used as cytotoxic positive control. Assay data were normalized against untreated Plasmodium parasites and HepG2 cell controls. […] Data were analysed on Microsoft Excel and sigmoidal dose-response curves were plotted using GraphPad Prism (v5). Unless otherwise stated, all data have been expressed as mean ± SEM (n ≥ 2, carried out in three technical repeats).

[3] = system: intra-erythrocytic asexual P. falciparum (NF54 strain) parasites; experiment: pLDH assay, intra-erythrocytic asexual parasites; assay type: cell-based, Plasmodium falciparum; details: 1% parasitaemia; for IC50 value, Asexual stages: 72 h, n = 2; for IC50: Plasmodium falciparum, NF54, 72 h, n = 2, read-out: IC50 value, Asexual stages (converted)
Description: as §1

[4] = LDH leakage cytotoxicity assay; assay type: cell-based; details: human, HepG2 cells; HepG2, LDH leakage, positive control, n = 3
Description: as §2

[5] = system: mature, stage-V gametocytes (> 90% stage V); parameters: method as in PMID 26749441; details: > 90% stage V gametocytes; cited from earlier work
[6] = 1–2% gametocytaemia, n = 3, read-out: IC50 value, Late stage gametocytes
[7] = unpaired assays, n = 1, technical triplicate, 10-fold serial dilution, read-out: IC50, late-stage gametocytes (drug controls)

| Structure (SMILES) | IC50 value, Late stage gametocytes ([1]; 1–2% gametocytaemia, n = 3) [µg/mL] | IC50 [1, 6] | IC50 value, Early stage gametocytes [2] [µg/mL] | IC50 [2] [µM] | cytotoxicity (toxicity) (HepG2 cells) [%] | In vitro cytotoxicity range (HepG2 cells) | IC50 value, Asexual stages [3] [µg/mL] | IC50 [3] | IC50 [1, 7] [µM] | other results |
| --- | --- | --- | --- | --- | --- | --- | --- | --- | --- | --- |
| C=C1C(=O)O[C@H]2[C@H]1[C@@H](OC(C)=O)C[C@@](C)(O)[C@@]13O[C@@H]1[C@@H]1O[C@]1(C)[C@H]23 [Compound 2, yomogiartemin] | 5.3 | < 10 µg/mL and 15.8 µM | 4.4 ± 0.3 (≈ 13.1 µM) | 13.1 | < 10 | 0.40–8.35% | 3.8 ± 1.2 (≈ 11.3 µM) | 11.3 µM |  | IC50 value, Early stage gametocytes ([2]; listed as yomogiartemin): < 10 µg/mL; IC50 value, Asexual stages ([3]; listed as yomogiartemin): < 10 µg/mL |
| CC[C@H]1CN2CCc3cc(OC)c(OC)cc3[C@@H]2C[C@@H]1C[C@H]1NCCc2cc(OC)c(OC)cc21 [Emetine, reference compound] |  |  |  |  |  |  |  |  |  | EC50 [4]: 4.7 µg/mL (≈ 9.78 µM); cytotoxicity (HepG2 cells; HepG2, 100 µM, positive control): > 50% |
| C=C1C(=O)O[C@H]2C1[C@@H](OC(C)=O)CC(=C)[C@]1(O)C=C[C@@](C)(O)[C@H]21 (stereo partly drawn) [Compound 1, 1α,4α-dihydroxybishopsolicepolide] | 2 | 6.3 µM | 5.6 ± 0.2 (≈ 17.5 µM) | 17.5 | < 10 | 0.03–9.47% | 6.0 (≈ 18.7 µM) | < 10 µg/mL and 18.7 µM |  | IC50 value, Late stage gametocytes ([1]; 1–2% gametocytaemia, n = 3, listed as 1α,4α-dihydroxybishopsolicepolide): < 10 µg/mL |
| C[C@@H]1CC[C@H]2[C@@H](C)C(=O)O[C@@H]3O[C@@]4(C)CC[C@@H]1[C@]32OO4 [artemisinin, reference compound] |  |  |  |  |  |  |  |  | 0.057 | IC50 [5]: > 12.5 µM |
| CN(C)c1ccc2nc3ccc(=[N+](C)C)cc-3sc2c1 [Methylene blue, methylene blue, reference compound] |  |  |  |  |  |  |  |  | 0.031 |  |

— PMC6408838, “Bioassay-guided isolation and identification of gametocytocidal compounds from Artemisia afra (Asteraceae)” (Malaria Journal, 2019)
